Data from US7618958B2, “Stereospecific anxiolytic and anticonvulsant agents with reduced muscle-relaxant, sedative-hypnotic and ataxic effects” (WISYS Technology Foundation, Inc., priority 2004, dated 2009).
pKi: −log10 of the molar value.

Tests used:
GABAA/α3 = GABAA/α3 (Homo sapiens, UniProt P18507+P34903); settings: cited from earlier work
Male CF1 mice = test: Protection from pentylenetetrazole-induced seizures; type: in vivo, mouse; settings: for PTZ Seizures, effective dose: PO 60 min before pentylenetetrazole 125 mg/kg s.c.; for anticonvulsant effects against PTZ-induced seizures: PTZ 125 mg/kg
Method: Protection from Pentylenetetrazole-Induced Seizures
Male CF1 mice weighing 20-22 g at the time of the experiment were purchased from Charles River Laboratories (Wilmington, Mass.). Pentylenetetrazole (Sigma Chemical Co.) was administered at 125 mg/kg s.c. The number of animals surviving was recorded at 30 minutes and 60 minutes after administration of pentylenetetrazole.
Drug Administration: All drugs were administered PO 60 minutes before administration of pentyenetetrazole.
Data Analysis: The data are presented as the percent of animals protected from death. The data were analyzed by Chi Square statistics. The significance level was set at p<0.05.
Mice treated with certain compounds of the present invention were subjected to pentylenetetrazole (PTZ) at 125 mg/kg to induce seizures. The percent of animals protected from death within one hour of PTZ was measured.

GABAA/α5 receptors = GABAA/α5 receptors (Homo sapiens, UniProt P18507+P31644); settings: cited from earlier work
Male Sprague-Dawley rats [1] = test: Rotorod performance in rats; settings: for ataxia (rotorod): compared with diazepam or triazolam; for Antianxiety/ataxia: ratio of lowest effective anxiolytic dose (situational anxiety) and lowest effective dose producing side effects in rotorod, PO
Method: Rotorod Performance in Rats
Male Sprague-Dawley rats, weighing 180-200 grams at the beginning of the experiment were purchased from Charles River Laboratories (Wilmington, Mass.). The animals were housed in groups of four in a colony room maintained at constant temperature (21±2° C.) and humidity (50±10%). The room was illuminated 12 hours per day (lights on at 0600 h). The rats had ad libitum access to food and water. The degree of muscle coordination or balance (i.e., ataxia) was determined using a standard accelerating rotorod treadmill (Ugo Basile, Comerio-Varese, Italy or Columbus Instruments, Columbus, Ohio) that was 6 cm in diameter, 24 cm above the base, and run from an initial speed of 2 rpm to a maximum speed of 20 rpm. The time each animal remained on the rotating rod was automatically recorded, up to a maximum of 5 minutes.
(§1) Drug Administration: All drugs were administered PO 20-60 minutes before behavioral testing.
(§2) Data Analysis: Results were expressed as the mean±1 SEM. All data were subjected to analysis of variance (ANOVA) followed by individual mean comparisons using Fisher's Least Significant Difference Test (Kirk, 1968) where appropriate. The significance level was set at p<0.05.
The time on the rod for each rat was recorded. Compounds producing ataxia (motor incoordination) decrease the time spent on the rod compared with vehicle-treated animals.

GABAA/α2 = GABAA/α2 (Homo sapiens, UniProt P18507+P47869); settings: cited from earlier work
Male Sprague-Dawley rats [2] = test: Discriminative stimulus effects of chlordiazepoxide in rats (drug discrimination); settings: for CDP-like effects (drug discrimination): compared with diazepam or triazolam; for Antianxiety/abuse liability: ratio of lowest effective anxiolytic dose (situational anxiety) and lowest effective dose producing chlordiazepoxide-like effects in drug discrimination
Male Sprague-Dawley rats [3] = test: Open-field locomotor activity in rats; settings: for sedative or hypnotic effects (locomotor activity): compared with diazepam or triazolam; for Antianxiety/sedation: ratio of lowest effective anxiolytic dose (situational anxiety) and lowest effective dose producing side effects in locomotor activity, PO
Method: Open-Field Locomotor Activity in Rats
Male Sprague-Dawley rats, weighing 250-290 grams at the beginning of the experiment were purchased from Charles River Laboratories (Wilmington, Mass.). The animals were housed in groups of four in a colony room maintained at constant temperature (21±2° C.) and humidity (50±10%). The room was illuminated 12 hours per day (lights on at 0600 h). The rats had ad libitum access to food and water. The testing apparatus consisted of Plexiglas chambers (42×42×30 cm) equipped with Digiscan activity monitors (Omnitech Electronics, Columbus, Ohio) that detect interruptions of 16 photobeams spaced 2.5 cm apart and 2.5 cm above the floor. Horizontal activity was monitored for 60 minutes.
as §1, §2
Rats were placed in an open field and the total distance covered by the rat was measured. The test duration was 60 minutes. Compounds producing sedative effects decrease the distance covered.

GABAA/α1 receptors = GABAA/α1 receptors (Homo sapiens, UniProt P14867+P18507); settings: cited from earlier work
GABAA/α1 receptors, sequence (P14867 28-456): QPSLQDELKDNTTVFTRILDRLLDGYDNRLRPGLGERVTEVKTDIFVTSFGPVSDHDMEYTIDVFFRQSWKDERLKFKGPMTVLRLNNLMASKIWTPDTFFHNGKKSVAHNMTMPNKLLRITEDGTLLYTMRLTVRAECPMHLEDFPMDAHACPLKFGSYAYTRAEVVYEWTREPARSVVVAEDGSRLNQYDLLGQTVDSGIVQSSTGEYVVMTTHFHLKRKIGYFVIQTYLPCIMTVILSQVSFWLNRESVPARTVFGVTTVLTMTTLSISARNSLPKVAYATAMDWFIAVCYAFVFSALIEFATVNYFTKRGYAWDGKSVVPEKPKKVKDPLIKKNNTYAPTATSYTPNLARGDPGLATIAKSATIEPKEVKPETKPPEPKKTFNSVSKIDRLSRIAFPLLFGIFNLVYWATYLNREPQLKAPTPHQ
GABAA/α1 receptors, sequence (P28472 26-473 partner): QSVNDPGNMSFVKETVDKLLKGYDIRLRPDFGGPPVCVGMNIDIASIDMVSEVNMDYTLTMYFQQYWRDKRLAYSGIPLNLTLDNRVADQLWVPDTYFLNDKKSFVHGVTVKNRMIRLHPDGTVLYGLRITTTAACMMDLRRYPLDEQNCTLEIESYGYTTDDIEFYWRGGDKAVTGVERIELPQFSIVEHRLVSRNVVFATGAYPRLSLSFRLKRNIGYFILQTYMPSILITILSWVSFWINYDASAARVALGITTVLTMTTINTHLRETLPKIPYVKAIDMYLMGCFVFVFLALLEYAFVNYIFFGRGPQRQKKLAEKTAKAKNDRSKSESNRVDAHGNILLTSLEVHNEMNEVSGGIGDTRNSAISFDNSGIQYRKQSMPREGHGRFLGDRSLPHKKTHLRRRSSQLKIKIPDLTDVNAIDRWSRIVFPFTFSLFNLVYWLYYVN
GABAA/α1 receptors, sequence (P18507 40-475): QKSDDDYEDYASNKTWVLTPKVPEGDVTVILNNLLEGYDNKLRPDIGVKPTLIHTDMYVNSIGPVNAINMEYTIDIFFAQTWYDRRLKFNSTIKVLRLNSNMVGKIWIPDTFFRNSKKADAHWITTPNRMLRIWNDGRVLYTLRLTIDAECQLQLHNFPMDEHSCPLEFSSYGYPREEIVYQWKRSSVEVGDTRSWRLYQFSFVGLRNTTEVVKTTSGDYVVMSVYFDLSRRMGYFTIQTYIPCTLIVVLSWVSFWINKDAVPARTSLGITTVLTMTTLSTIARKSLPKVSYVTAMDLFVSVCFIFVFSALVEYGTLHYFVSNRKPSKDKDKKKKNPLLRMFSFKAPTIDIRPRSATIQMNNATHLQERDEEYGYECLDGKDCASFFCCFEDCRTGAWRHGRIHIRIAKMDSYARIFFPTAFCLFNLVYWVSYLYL

GABAA/α2, sequence (P47869 29-451): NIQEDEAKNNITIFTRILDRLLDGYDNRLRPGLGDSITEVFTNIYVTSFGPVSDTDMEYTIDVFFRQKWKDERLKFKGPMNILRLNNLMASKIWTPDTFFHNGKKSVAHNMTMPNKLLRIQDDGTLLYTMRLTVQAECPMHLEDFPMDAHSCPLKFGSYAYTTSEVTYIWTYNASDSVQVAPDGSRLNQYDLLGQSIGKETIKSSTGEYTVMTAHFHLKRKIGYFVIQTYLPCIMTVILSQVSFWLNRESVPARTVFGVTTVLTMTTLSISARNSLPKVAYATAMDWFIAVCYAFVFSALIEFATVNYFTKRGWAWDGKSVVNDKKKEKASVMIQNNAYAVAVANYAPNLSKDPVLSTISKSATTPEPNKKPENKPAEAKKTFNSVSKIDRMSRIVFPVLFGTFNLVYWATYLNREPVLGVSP
GABAA/α2, sequence (P28472 26-473 partner): as the sequence (P28472 26-473 partner) above
GABAA/α2, sequence (P18507 40-475): as the sequence (P18507 40-475) above
GABAA/α5 receptors, sequence (P31644 32-462): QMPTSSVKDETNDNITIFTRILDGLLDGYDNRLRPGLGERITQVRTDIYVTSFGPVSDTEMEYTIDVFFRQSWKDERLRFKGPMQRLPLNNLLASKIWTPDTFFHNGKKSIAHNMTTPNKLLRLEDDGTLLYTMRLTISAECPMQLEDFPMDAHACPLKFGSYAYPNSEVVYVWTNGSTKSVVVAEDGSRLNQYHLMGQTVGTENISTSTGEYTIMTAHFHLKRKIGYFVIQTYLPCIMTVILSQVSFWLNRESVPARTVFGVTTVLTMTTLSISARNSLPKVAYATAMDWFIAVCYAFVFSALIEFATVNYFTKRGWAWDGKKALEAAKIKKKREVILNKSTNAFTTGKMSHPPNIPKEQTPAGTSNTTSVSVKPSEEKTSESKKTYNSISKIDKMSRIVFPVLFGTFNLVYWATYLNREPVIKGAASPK
GABAA/α5 receptors, sequence (P28472 26-473 partner): as the sequence (P28472 26-473 partner) above
GABAA/α5 receptors, sequence (P18507 40-475): as the sequence (P18507 40-475) above
GABAA/α3, sequence (P34903 29-492): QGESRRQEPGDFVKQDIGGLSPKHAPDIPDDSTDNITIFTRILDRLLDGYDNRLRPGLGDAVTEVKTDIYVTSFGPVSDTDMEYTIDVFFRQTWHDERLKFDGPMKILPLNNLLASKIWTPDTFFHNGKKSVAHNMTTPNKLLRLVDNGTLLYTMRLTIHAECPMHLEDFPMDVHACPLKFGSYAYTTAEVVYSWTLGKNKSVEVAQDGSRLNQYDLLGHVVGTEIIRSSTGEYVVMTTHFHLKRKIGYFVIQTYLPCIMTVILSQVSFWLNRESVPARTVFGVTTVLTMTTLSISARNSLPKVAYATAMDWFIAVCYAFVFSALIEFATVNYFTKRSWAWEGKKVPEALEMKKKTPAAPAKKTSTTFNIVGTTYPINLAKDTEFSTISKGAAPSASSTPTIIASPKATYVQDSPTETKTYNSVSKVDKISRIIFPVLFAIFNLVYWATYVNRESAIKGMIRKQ
GABAA/α3, sequence (P28472 26-473 partner): as the sequence (P28472 26-473 partner) above
GABAA/α3, sequence (P18507 40-475): as the sequence (P18507 40-475) above

| Compound | pKi (GABAA/α3) | PTZ Seizures, effective dose (Male CF1 mice) | anticonvulsant effects against PTZ-induced seizures (Male CF1 mice) | pKi (GABAA/α5 receptors) | ataxia (rotorod) (Male Sprague-Dawley rats [1]) | Antianxiety/ataxia (Male Sprague-Dawley rats [1]) | pKi (GABAA/α2) | CDP-like effects (drug discrimination) (Male Sprague-Dawley rats [2]) | Antianxiety/abuse liability (Male Sprague-Dawley rats [2]) | sedative or hypnotic effects (locomotor activity) (Male Sprague-Dawley rats [3]) | Antianxiety/sedation (Male Sprague-Dawley rats [3]) | pKi (GABAA/α1 receptors) |
| --- | --- | --- | --- | --- | --- | --- | --- | --- | --- | --- | --- | --- |
| C#Cc1ccc2c(c1)C(c1ccccc1)=NCC(=O)N2C [QH-ii-066, 1-Methyl-7-acetyleno-5-phenyl-1,3-dihydro-benzo [e]-1,4-diazepin-2-one] | > 7.30 | <30 mg/kg | anticonvulsant effects against PTZ-induced seizures at doses comparable to those for diazepam and triazolam | > 8.00 | less potent in producing ataxia than diazepam or triazolam | >100 | > 7.30 | less potent in producing CDP-like effects than diazepam or triazolam | 30 | less effective in producing sedative or hypnotic effects than diazepam or triazolam | 100 | < 7.15 |
| C#Cc1ccc2c(c1)C(c1ccccc1)=NCc1c(C(=O)OCC)ncn1-2 [XHe-ii-053, Ethyl 8-acetylenyl-6-phenyl-4H-benzo[f]imidazo[1,5-a][1,4]diazepine-3-carboxylate] |  | ≦100 mg/kg | effective against PTZ-induced seizures |  | less potent in producing ataxia than diazepam or triazolam | >300 |  | less potent in producing CDP-like effects than diazepam or triazolam | >300 | less effective in producing sedative or hypnotic effects than diazepam or triazolam | >300 |  |
| C#Cc1ccc2c(c1)C(c1ccccc1Cl)=NCc1nnc(C)n1-2 [XLi-JY-DMH, 8-Acetyleno-5-(2′-chlorophenyl)-1-methyl-4H-s-triazolo-[4,3-a]-1,4-benzodiazepine] |  | <1.0 mg/kg | anticonvulsant effects against PTZ-induced seizures at doses comparable to those for diazepam and triazolam |  | less potent in producing ataxia than diazepam or triazolam | 10000 |  | less potent in producing CDP-like effects than diazepam or triazolam | 1000 | less effective in producing sedative or hypnotic effects than diazepam or triazolam | 10000 |  |
